# Experimental data from patent publication US20250205191A1, “R(-)-MDMA COMPOSITIONS AND METHODS OF TREATMENT” (EmpathBio, Inc., priority 2023, published 2025).
# Key:
# healthy volunteers [1] = assay: Phase 1 exploratory Visual Analog Scale (VAS); type: in vivo, human; conditions: vs placebo; dose-dependent pattern
# Excerpt: VAS measure changes in subjective experience that are typical in healthy human volunteer studies. These include experiences such as Happy, Open, Loving, Close to Others, Sociable, and Lonely.
# [2] = biological target: T1, human 5-HT2C (non-edited) receptor (Homo sapiens, UniProt P28335); assay: 5-HT2C (non-edited) agonism, inositol monophosphate accumulation (HTRF), CHO-K1 recombinant cells; type: cell-based
# T1 construct: expressed in transfected cells; host or cells: CHO-K1
# T1 sequence (P28335 33-458): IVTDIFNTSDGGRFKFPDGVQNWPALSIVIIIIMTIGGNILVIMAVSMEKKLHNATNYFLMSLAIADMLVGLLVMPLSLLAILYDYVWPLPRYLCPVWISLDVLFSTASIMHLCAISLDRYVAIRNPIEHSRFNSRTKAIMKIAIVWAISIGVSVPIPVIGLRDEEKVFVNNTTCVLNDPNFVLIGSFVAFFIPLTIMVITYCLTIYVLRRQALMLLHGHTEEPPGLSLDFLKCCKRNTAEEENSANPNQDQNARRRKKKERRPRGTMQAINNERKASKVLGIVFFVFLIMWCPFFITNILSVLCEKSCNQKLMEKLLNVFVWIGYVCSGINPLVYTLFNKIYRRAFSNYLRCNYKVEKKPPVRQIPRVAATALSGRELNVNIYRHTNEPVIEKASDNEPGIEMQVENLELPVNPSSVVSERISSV
# male C57BL/6J mice = assay: Mouse extinction of fear learning assay; type: in vivo; conditions: vs vehicle
# Protocol: Extinction of fear learning in rodents is a useful assay to understand if compounds have the potential to enhance learning processes that may be involved in recovery from SAD and other stress and anxiety related disorders, due to its resemblance to exposure-based therapy in humans. […] Freezing behavior, an indicator of the fear response, was measured in the presence of the CS during the extinction training session (Day 1) and the day after (Day 2, Extinction Testing, in the absence of test article). Locomotor activity was measured during the initial 2-minute habituation period, prior to the presentation of the CS, on Days 1 and 2.
# healthy volunteers [3] = assay: Phase 1 Spoken Intensity Rating Scale (SIRS); type: in vivo, human
# Protocol: Beyond 8 hours postdose, mean SIRS scores remained ≤0.5 in all cohorts.
# healthy volunteers [4] = assay: Phase 1 Multifaceted Empathy Test (MET); type: in vivo, human; conditions: 75-225 mg
# Excerpt: The Multifaceted Empathy Test (MET) measures cognitive empathy (CE), explicit emotional empathy (EEE) and implicit emotional empathy (IEE).
# oxytocin = assay: Phase 1 hormone response, oxytocin; type: in vivo, human; conditions: any cohort vs placebo group
# [5] = biological target: T2, human 5-HT2C (edited) receptor (Homo sapiens, UniProt P28335); assay: 5-HT2C (edited) agonism, inositol monophosphate accumulation (HTRF), CHO-K1 recombinant cells; type: cell-based
# T2 sequence (P28335 33-458): T1 sequence (P28335 33-458)
# healthy volunteers [6] = assay: Phase 1 Challenging Experiences Questionnaire (CEQ); type: in vivo, human; conditions: 6.5 hours post dosing
# Excerpt: Seven Challenging Experiences Questionnaire (CEQ) factors (grief, fear, death, insanity, isolation, physical distress, and paranoia) provide a phenomenological profile of challenging aspects of experiences with R(−)-MDMA.
# human 5-HT2A receptor = biological target: T3, human 5-HT2A receptor (Homo sapiens, UniProt P28223); assay: 5-HT2A agonism, inositol monophosphate accumulation (HTRF), CHO-K1 recombinant cells; type: cell-based
# T3 construct: expressed in transfected cells; host or cells: CHO-K1
# human 5-HT2B receptor = biological target: T4, human 5-HT2B receptor (Homo sapiens, UniProt P41595); assay: 5-HT2B agonism, inositol monophosphate accumulation (HTRF), CHO-K1 recombinant cells; type: cell-based
# T4 construct: expressed in transfected cells; host or cells: CHO-K1
# [7] = Phase 1 clinical study, urine pharmacokinetics (urinalysis); type: in vivo, human
# healthy volunteers [8] = assay: Phase 1 Emotional Breakthrough Inventory (EBI); type: in vivo, human
# Excerpt: Self-reported Emotional Breakthrough Inventory (EBI) include facing emotionally difficult feelings that are usually pushed aside; experiencing resolution of a personal conflict or trauma; ability to explore challenging emotions and memories; having an emotional breakthrough; achieving a sense of closure on an emotional problem; and achieving emotional release followed by sense of relief. Emotional breakthrough is an important and distinct component of the acute psychedelic experience that appears to be a key mediator (state predictor) of subsequent longer-term psychological changes in psychiatric populations. (Carhartt-Harris, et al., Trial of Psilocybin versus Escitalopram for Depression, N Engl J Med 2021; 384:1402-1411).
# healthy volunteers [9] = assay: 11-Dimensions-Altered States of Consciousness (11D-ASC); type: in vivo, human
# [10] = urine analyte after EMP-01 125 mg, Day 9
# [11] = urine analyte after single oral 75 mg R(−)-MDMA, Day 1
# [12] = urine analyte after single oral 125 mg R(−)-MDMA, Day 1
# [13] = urine analyte after single oral 175 mg R(−)-MDMA, Day 1
# [14] = urine analyte after single oral 225 mg R(−)-MDMA, Day 1
# T3 sequence (P28223 whole entry): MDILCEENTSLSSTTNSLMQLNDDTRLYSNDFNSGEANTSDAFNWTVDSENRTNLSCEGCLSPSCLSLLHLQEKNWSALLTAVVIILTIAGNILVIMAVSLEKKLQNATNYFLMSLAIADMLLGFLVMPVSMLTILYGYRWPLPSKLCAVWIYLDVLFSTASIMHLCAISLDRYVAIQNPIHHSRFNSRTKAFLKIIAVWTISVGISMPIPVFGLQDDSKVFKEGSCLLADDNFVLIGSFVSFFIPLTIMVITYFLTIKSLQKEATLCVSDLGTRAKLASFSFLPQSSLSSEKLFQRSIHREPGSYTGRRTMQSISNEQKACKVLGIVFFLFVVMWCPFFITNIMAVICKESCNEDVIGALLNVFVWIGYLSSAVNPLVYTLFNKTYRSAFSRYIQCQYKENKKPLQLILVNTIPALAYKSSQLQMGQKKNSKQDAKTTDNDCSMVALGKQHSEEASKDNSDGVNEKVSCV
# T4 sequence (P41595 whole entry): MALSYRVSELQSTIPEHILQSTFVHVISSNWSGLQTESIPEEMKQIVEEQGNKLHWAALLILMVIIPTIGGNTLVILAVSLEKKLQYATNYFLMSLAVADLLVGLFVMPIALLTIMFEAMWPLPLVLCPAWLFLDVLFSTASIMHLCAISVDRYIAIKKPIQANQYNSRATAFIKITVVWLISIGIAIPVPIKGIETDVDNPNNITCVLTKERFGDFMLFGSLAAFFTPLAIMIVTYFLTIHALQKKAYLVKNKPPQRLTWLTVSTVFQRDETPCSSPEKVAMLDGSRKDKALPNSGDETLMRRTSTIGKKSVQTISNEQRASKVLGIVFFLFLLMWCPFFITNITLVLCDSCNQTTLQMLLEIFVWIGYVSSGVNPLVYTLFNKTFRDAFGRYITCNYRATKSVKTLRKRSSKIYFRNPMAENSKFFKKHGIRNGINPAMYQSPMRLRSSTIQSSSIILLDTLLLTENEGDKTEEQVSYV
smiles,measurement,setting,value
"CN[C@H](C)Cc1ccc2c(c1)OCO2 [R(−)-MDMA, R(−)-3,4-methylenedioxymethamphetamine]","VAS scores for positive affect (happy, loving, openness, less loneliness)",healthy volunteers [1],increased VAS scores compared to placebo
same,agonism in words,[2]; 5-HT2C (non-edited) receptors,high potency full agonism
same,Efficacy (% of a-Me-5-HT response),"[2]; 5-HT2C (non-edited), relative to α-Me-5-HT at its EC100",97.9%
same,freezing behavior,male C57BL/6J mice; 10 mg/kg IP once,significantly reduced freezing behavior on Day 2 only
same,locomotor activity,male C57BL/6J mice; 10 mg/kg IP once,significantly increased activity on Day 1 only
same,freezing behavior,male C57BL/6J mice; 17 mg/kg IP once,significant reductions of freezing behavior on Days 1 and 2
same,locomotor activity,male C57BL/6J mice; 17 mg/kg IP once,significantly increased activity on Day 1 only
same,freezing behavior,male C57BL/6J mice; 30 mg/kg IP once,significant reductions of freezing behavior on Days 1 and 2
same,locomotor activity (activity counts),male C57BL/6J mice; 30 mg/kg IP once,significant increases in activity counts on Days 1 and 2
same,SIRS dose response,healthy volunteers [3]; 75-225 mg oral,strong dose response
same,mean SIRS scores,"healthy volunteers [3]; all cohorts, beyond 8 hours postdose",≤ 0.5
same,mean SIRS scores,"healthy volunteers [3]; fasted state, each cohort, 1 to 2 hours postdose",small nominal increases from Baseline
same,"MET LSmean scores in CE negative emotions, changes from baseline",healthy volunteers [4],dose-dependent manner
same,oxytocin production,oxytocin,did not appear to have an effect
same,agonism in words,[5]; 5-HT2C (edited) receptors,high potency full agonism
same,Efficacy (% of a-Me-5-HT response),"[5]; 5-HT2C (edited), relative to α-Me-5-HT at its EC100",96.6%
same,CEQ changes from baseline,healthy volunteers [6],clear dose-dependent response with statistical significance at higher doses
same,agonism in words,human 5-HT2A receptor; 5-HT2A receptors,moderate potency partial agonism
same,EC50,"human 5-HT2A receptor; 5-HT2A, CHO-K1, IP accumulation",3340 nM
same,Efficacy (% of a-Me-5-HT response),"human 5-HT2A receptor; 5-HT2A, relative to α-Me-5-HT at its EC100",69.3%
same,agonism in words,human 5-HT2B receptor; 5-HT2B receptors,high potency full agonism
same,EC50,"human 5-HT2B receptor; 5-HT2B, CHO-K1, IP accumulation",53 nM
same,Efficacy (% of a-Me-5-HT response),"human 5-HT2B receptor; 5-HT2B, relative to α-Me-5-HT at its EC100",91.8%
same,detection in urine,[7]; 0-4 hours postdose,detected in urine in all participants by the first collection interval
same,"mean cumulative amount excreted in urine (CAe), trend",[7]; across dose groups,dose-related increase
same,"mean renal clearance (CLr), trend",[7]; across dose groups,approximately similar across all dose groups
same,mean urine concentration over collection intervals,[7]; all intervals to 30 hours,highest in the 12-24 hour collection interval
same,"Ae12-24, amount excreted at the 12-24 hour collection interval",[7]; [10],18.5655 (12.7511) mg
same,"CAe, cumulative amount of drug excreted",[7]; [10],40.5567 (15.5851) mg
same,"CFe, cumulative fraction of drug excreted",[7]; [10],32.4453 (12.4681) %
same,"CLr, renal clearance rate",[7]; [10],5.2324 (1.8093) L/h
same,"Fe12-24, fraction of drug excreted at the 12-24 hour collection interval",[7]; [10],14.8524 (10.2009) %
same,"Ae12-24, amount excreted at the 12-24 hour collection interval",[7]; [11],7.6917 (3.1509) mg
same,"CAe, cumulative amount of drug excreted",[7]; [11],20.0733 (9.7605) mg
same,"CFe, cumulative fraction of drug excreted",[7]; [11],26.7643 (13.0140) %
same,"CLr, renal clearance rate",[7]; [11],4.9966 (1.2255) L/h
same,"Fe12-24, fraction of drug excreted at the 12-24 hour collection interval",[7]; [11],10.2556 (4.2012) %
same,"Ae12-24, amount excreted at the 12-24 hour collection interval",[7]; [12],14.5039 (5.6733) mg
same,"CAe, cumulative amount of drug excreted",[7]; [12],28.2063 (7.8540) mg
same,"CFe, cumulative fraction of drug excreted",[7]; [12],22.5650 (6.2832) %
same,"CLr, renal clearance rate",[7]; [12],3.9900 (1.0288) L/h
same,"Fe12-24, fraction of drug excreted at the 12-24 hour collection interval",[7]; [12],11.6031 (4.5387) %
same,"Ae12-24, amount excreted at the 12-24 hour collection interval",[7]; [13],20.3702 (13.5536) mg
same,"CAe, cumulative amount of drug excreted",[7]; [13],59.6271 (34.2201) mg
same,"CFe, cumulative fraction of drug excreted",[7]; [13],34.0726 (19.5543) %
same,"CLr, renal clearance rate",[7]; [13],5.9108 (2.5782) L/h
same,"Fe12-24, fraction of drug excreted at the 12-24 hour collection interval",[7]; [13],11.6401 (7.7449) %
same,"Ae12-24, amount excreted at the 12-24 hour collection interval",[7]; [14],36.8357 (16.8611) mg
same,"CAe, cumulative amount of drug excreted",[7]; [14],76.0465 (15.1167) mg
same,"CFe, cumulative fraction of drug excreted",[7]; [14],33.7985 (6.7186) %
same,"CLr, renal clearance rate",[7]; [14],5.5411 (1.6424) L/h
same,"Fe12-24, fraction of drug excreted at the 12-24 hour collection interval",[7]; [14],16.3714 (7.4938) %
same,"EBI, acute experience of emotional breakthroughs",healthy volunteers [8]; 225 mg vs placebo,significantly higher
same,"EBI, acute experience of emotional breakthroughs, dose response",healthy volunteers [8]; 75-225 mg,dose-dependent increase
same,11D-ASC changed meaning of percepts,healthy volunteers [9]; 225 mg dose group vs comparators of FIG. 11,strongest
same,11D-ASC response profile,healthy volunteers [9]; 75-225 mg oral,psychedelic-like response
